The values below are quoted from earlier work in patent US20130287898A1, “Trivalent Chromium and Boron Fortifying Composition, a Hydration Supplement, and Process for Preparing the Same” (priority 2010, published 2013).

The conditions of data set [1]: in vivo.
The conditions of data set [2]: Expert group of vitamins & Minerals, UK - 2003.
For data set [3] the following is noted: humans, 270 mg orally.

On to `[B]` [Boron], for which, in data set [1], the “absorption from the gastrointestinal tract” value was “well absorbed” and the excreted through urine entry is listed as “about 90%”.
`[Cr]` [Chromium]: the “Safe Upper level per day” value in data set [2] was 10 mg.
Consider `OB(O)O` [boric acid], for which the “discomfort / signs of toxicity” value in data set [3] is given as “no obvious signs of toxicity”.
